Earlier results as cited in patent US4127538A, “Novel pentacosapeptides, intermediates therefor and pharmaceutical compositions and methods employing said pentacosapeptides” (priority 1977, dated 1978).

What was measured:
[1] = system: partially purified brain opiate receptor sites
[2] = injected directly into the brain of the rat

Question: Which “binding to partially purified brain opiate receptor sites” value [1] does the source give for “H-Tyr-Gly-Gly-Phe-Met-OH [methionine enkephalin]” here?
Answer: Its value is “binds stereo-specifically”.

Question: What about the analgesic effect [2] of the same substance?
Answer: The analgesic effect was “weak analgesic agent of short duration”.
